US20230069722A1, “TUBULYSINS AND PROTEIN-TUBULYSIN CONJUGATES” (priority 2020, published 2023)
Where two headings read alike, the source gives them in different places.

Tested on: HCT15 cells
Test: MDR cell based killing assay, HCT15 cells with or without Verapamil (CellTiter-Glo)
Set-up: species or system human
Settings: Homo sapiens
Procedure: To test the ability of the disclosed tubulysin payloads or prodrug payloads to kill human cell lines, an in vitro cytotoxicity assay can be performed. In vitro cytotoxicity of the disclosed payloads, as well as reference compounds, are evaluated using the CellTiter-Glo Assay Kit (Promega, Cat # G7573), in which the quantity of ATP present is used to determine the number of viable cells in culture. For the assay, C4-2, HEK293, or T47D cells are seeded at 4000 cells/well on Nunclon white 96-well plates in complete growth medium (DME high glucose:Ham's F12 at 4:1, 10% FBS, 100 units/ml Penicillin, 100 ug/ml streptomycin, 53 ug/ml glutatmine, 10 ug/ml insulin, 220 ng/ml biotin, 12.5 pg/ml T3, 12.5 ug/ml Adenine, 4 ug/ml transferrin for C42 cells; DME high glucose, 10% FBS, 100 units/ml Penicillin, 100 ug/ml streptomycin, 53 ug/ml glutatmine for HEK293; RPMI, 10% FBS, 100 units/ml Penicillin, 100 ug/ml streptomycin, 53 ug/ml glutatmine, 10 ug/ml insulin, 10 mM HEPEs, 200 nM Sodium Pyruvate for T47D cells) and grown overnight at 37° C. in 5% CO2. For cell viability curves, 1:3 serially diluted payloads are added to the cells at final concentrations ranging from 100 nM to 15 pM, including a no treatment control group, and are then incubated for 5 days. After the 5-day incubation, cells are incubated at room temperature with 100 μL of CellTiter-Glo reagents for 10 minutes. Relative luminescence units (RLU) can be determined on a Victor plate reader (PerkinElmer). The IC50 values are determined from a four-parameter logistic equation over a 10-point response curve (GraphPad Prism). All IC50 values are expressed in molar (M) concentration. The percent cell killing (% kill) at the maximum concentration tested is estimated from the following formula (100−% viable cells). Averages±standard deviation (SD) can be included where replicate experiments are performed.
In vitro cytotoxicity of the disclosed payloads as well as reference compounds are evaluated similarly as described above except using 1000 HCT15 cells, a colorectal carcinoma cell line, in growth medium (RPMI, 10% FBS, 100 units/ml Penicillin, 100 ug/ml streptomycin, 53 ug/ml glutatmine) with or without 5 ug/mL of Verapamil.
For each payload or prodrug payload, the HCT-15 IC50 in the absence of Verapamil is divided by the HCT-15 IC50 in the presence of Verapamil (HCT-15 IC50/HCT-15+Verapamil IC50). […] The reference compound, (MMAE), can have a ratio of 23.7. […]

[1] = HCT-15, read-out: HCT-15 with verapamil IC50

| Structure (SMILES) | IC50 (HCT-15, read-out: HCT-15 IC50) [nM] | IC50 [1] [nM] |
| --- | --- | --- |
| CCCCCCN(C(=O)[C@@H](NC(=O)[C@H]1CCCCN1C)[C@@H](C)CC)[C@H](C[C@@H](OC(C)=O)c1nc(C(=O)N[C@@H](Cc2ccc(F)cc2)CC(C)(C)C(=O)NS(=O)(=O)c2ccc(N)cc2)cs1)C(C)C [Compound P47, (1R,3R)-1-(4-{[(2S)-4-[(4-aminobenzenesulfonyl)carbamoyl]-1-(4-fluorophenyl)-4,4-dimethylbutan-2-yl]carbamoyl}-1,3-thiazol-2-yl)-3-[(2S,3S)—N-hexyl-3-methyl-2-{[(2R)-1-methylpiperidin-2-yl]formamido}pentanamido]-4-methylpentyl Acetate] | 53.5 | – |
| CCCCCCN(C(=O)[C@@H](NC(=O)[C@H]1CCCCN1C)[C@@H](C)CC)[C@H](C[C@@H](OCC)c1nc(C(=O)N[C@@H](Cc2ccc(N)c(F)c2)CC(C)(C)C(=O)O)cs1)C(C)C [Compound P3, (4S)-5-(4-amino-3-fluorophenyl)-4-({2-[(1R,3R)-1-ethoxy-3-[(2S,3S)—N-hexyl-3-methyl-2-{[(2R)-1-methylpiperidin-2-yl]formamido}pentanamido]-4-methylpentyl]-1,3-thiazol-4-yl}formamido)-2,2-dimethylpentanoic Acid] | 0.07 | 0.01 |
| CCCCCCN(C(=O)[C@@H](NC(=O)[C@H]1CCCCN1C)[C@@H](C)CC)[C@H](C[C@@H](OC(=O)NCCN)c1nc(C(=O)N[C@@H](Cc2ccc(N)c(F)c2)CC(C)(C)C(=O)O)cs1)C(C)C [Compound P5, (4S)-5-(4-amino-3-fluorophenyl)-4-({2-[(1R,3R)-1-{[(2-aminoethyl)carbamoyl]oxy}-3-[(2S,3S)—N-hexyl-3-methyl-2-{[(2R)-1-methylpiperidin-2-yl]formamido}pentanamido]-4-methylpentyl]-1,3-thiazol-4-yl}formamido)-2,2-dimethylpentanoic Acid] | 38.6 | 4.44 |
| CCCCCCN(C(=O)[C@@H](NC(=O)[C@H]1CCCCN1C)[C@@H](C)CC)[C@H](C[C@@H](OC(C)=O)c1nc(C(=O)NS(=O)(=O)c2ccc(N)cc2)cs1)C(C)C [Compound P43, (1R,3R)-1-{4-[(4-aminobenzenesulfonyl)carbamoyl]-1,3-thiazol-2-yl}-3-[(2S,3S)—N-hexyl-3-methyl-2-{[(2R)-1-methylpiperidin-2-yl]formamido}pentanamido]-4-methylpentyl Acetate] | 4.99 | 1.42 |
| CCCCCCN(C(=O)[C@@H](NC(=O)[C@H]1CCCCN1C)[C@@H](C)CC)[C@H](C[C@@H](OCC)c1nc(C(=O)N[C@@H](Cc2ccc(N)cc2)CC(C)(C)C(=O)O)cs1)C(C)C [Compound P8, (4S)-5-(4-aminophenyl)-4-({2-[(1R,3R)-1-ethoxy-3-[(2S,3S)—N-hexyl-3-methyl-2-{[(2R)-1-methylpiperidin-2-yl]formamido}pentanamido]-4-methylpentyl]-1,3-thiazol-4-yl}formamido)-2,2-dimethylpentanoic Acid] | 0.24 | 0.06 |
| C#CCCCON(C(=O)[C@@H](NC(=O)[C@H]1CCCCN1C)[C@@H](C)CC)[C@H](C[C@@H](OC(C)=O)c1nc(C(=O)N[C@@H](Cc2ccc(N)cc2)CC(C)(C)C(=O)O)cs1)C(C)C [Compound P34, (4S)-4-({2-[(1R,3R)-1-(acetyloxy)-4-methyl-3-[(2S,3S)-3-methyl-2-{[(2R)-1-methylpiperidin-2-yl]formamido}-N-(pent-4-yn-1-yloxy)pentanamido]pentyl]-1,3-thiazol-4-yl}formamido)-5-(4-aminophenyl)-2,2-dimethylpentanoic Acid] | 0.41 | 0.24 |
| CCCCCCN(C(=O)[C@@H](NC(=O)[C@H]1CCCCN1)[C@@H](C)CC)[C@H](C[C@@H](OCC)c1nc(C(=O)N[C@@H](Cc2ccc(N)cc2)CC(C)(C)C(=O)O)cs1)C(C)C [Compound P20, (4S)-5-(4-aminophenyl)-4-({2-[(1R,3R)-1-ethoxy-3-[(2S,3S)—N-hexyl-3-methyl-2-[(2R)-piperidin-2-ylformamido]pentanamido]-4-methylpentyl]-1,3-thiazol-4-yl}formamido)-2,2-dimethylpentanoic Acid] | 6.97 | 0.52 |
| CCCCCCN(C(=O)[C@@H](NC(=O)[C@H]1CCCCN1C)[C@@H](C)CC)[C@H](C[C@@H](OCC)c1nc(C(=O)N[C@@H](Cc2ccccc2)CC(C)(C)C(=O)NS(=O)(=O)Cc2ccc(N)cc2)cs1)C(C)C [Compound P48, (2S,3S)—N-[(1R,3R)-1-(4-{[(2S)-4-{[(4-aminophenyl)methanesulfonyl]carbamoyl}-4,4-dimethyl-1-phenylbutan-2-yl]carbamoyl}-1,3-thiazol-2-yl)-1-ethoxy-4-methylpentan-3-yl]-N-hexyl-3-methyl-2-{[(2R)-1-methylpiperidin-2-yl]formamido}pentanamide] | 65.8 | – |
| CCCCCCN(C(=O)[C@@H](NC(=O)[C@@]1(C)CCCN1)[C@@H](C)CC)[C@H](C[C@@H](OC(=O)NC)c1nc(C(=O)N[C@@H](Cc2ccc(O)cc2)CC(C)(C)C(=O)O)cs1)C(C)C [Compound P23, (4S)-4-({2-[(1R,3R)-3-[(2S,3S)—N-hexyl-3-methyl-2-{[(2R)-2-methylpyrrolidin-2-yl]formamido}pentanamido]-4-methyl-1-[(methylcarbamoyl)oxy]pentyl]-1,3-thiazol-4-yl}formamido)-5-(4-hydroxyphenyl)-2,2-dimethylpentanoic Acid] | 3.6 | 0.06 |
| CCCCCCN(C(=O)[C@@H](NC(=O)[C@H]1CCCCN1C)[C@@H](C)CC)[C@H](C[C@@H](OC(C)=O)c1nc(C(=O)N[C@@H](Cc2ccc(N)cc2)CC(C)(C)C(=O)O)cs1)C(C)C [Compound P7, (4S)-4-({2-[(1R,3R)-1-(acetyloxy)-3-[(2S,3S)—N-hexyl-3-methyl-2-{[(2R)-1-methylpiperidin-2-yl]formamido}pentanamido]-4-methylpentyl]-1,3-thiazol-4-yl}formamido)-5-(4-aminophenyl)-2,2-dimethylpentanoic Acid] | 0.02 | 0.02 |
| CCCCCCN(C(=O)[C@@H](NC(=O)[C@H]1C[C@H](C)CCN1)[C@@H](C)CC)[C@H](C[C@@H](OC(C)=O)c1nc(C(=O)N[C@@H](Cc2ccc(N)c(F)c2)CC(C)(C)C(=O)O)cs1)C(C)C [Compound P14, (4S)-4-({2-[(1R,3R)-1-(acetyloxy)-3-[(2S,3S)—N-hexyl-3-methyl-2-{[(2R,4R)-4-methylpiperidin-2-yl]formamido}pentanamido]-4-methylpentyl]-1,3-thiazol-4-yl}formamido)-5-(4-amino-3-fluorophenyl)-2,2-dimethylpentanoic Acid] | 1.21 | 0.1 |
| C#CCCCON(C(=O)[C@@H](NC(=O)[C@H]1CCCCN1C)[C@@H](C)CC)[C@H](C[C@@H](OC(C)=O)c1nc(C(=O)N[C@@H](Cc2ccc(NC(=O)[C@H](N)CCC(=O)O)cc2)CC(C)(C)C(=O)O)cs1)C(C)C [Compound P41, (4S)-4-({2-[(1R,3R)-1-(acetyloxy)-4-methyl-3-[(2S,3S)-3-methyl-2-{[(2R)-1-methylpiperidin-2-yl]formamido}-N-(pent-4-yn-1-yloxy)pentanamido]pentyl]-1,3-thiazol-4-yl}formamido)-5-{4-[(2R)-2-amino-4-carboxybutanamido]phenyl}-2,2-dimethylpentanoic Acid] | 82.7 | – |
| CCCCCCN(C(=O)[C@@H](NC(=O)[C@H]1CCCCN1C)[C@@H](C)CC)[C@H](C[C@@H](O)c1nc(C(=O)N[C@@H](Cc2ccc(N)cc2)CC(C)(C)C(=O)O)cs1)C(C)C [Compound P6, (4S)-5-(4-aminophenyl)-4-({2-[(1R,3R)-3-[(2S,3S)—N-hexyl-3-methyl-2-{[(2R)-1-methylpiperidin-2-yl]formamido}pentanamido]-1-hydroxy-4-methylpentyl]-1,3-thiazol-4-yl}formamido)-2,2-dimethylpentanoic Acid] | 16.3 | 0.78 |
| CCCCCCN(C(=O)[C@@H](NC(=O)[C@@]1(C)CCCN1C)[C@@H](C)CC)[C@H](C[C@@H](OC(C)=O)c1nc(C(=O)N[C@@H](Cc2ccc(N)cc2)CC(C)(C)C(=O)O)cs1)C(C)C [Compound P19, (4S)-4-({2-[(1R,3R)-1-(acetyloxy)-3-[(2S,3S)-2-{[(2R)-1,2-dimethylpyrrolidin-2-yl]formamido}-N-hexyl-3-methylpentanamido]-4-methylpentyl]-1,3-thiazol-4-yl}formamido)-5-(4-aminophenyl)-2,2-dimethylpentanoic Acid] | 0.2 | 0.01 |
